Experiments:
IMP-1 = biological target: T1, IMP-1 (Serratia marcescens, UniProt P52699); experiment: MBL inhibition, reporter substrate method, IMP-1; assay type: biochemical; conditions: read-out: Inhibition of IMP-1 (dash in Ki column)
T1 construct: made in house; host or cells: E. coli BL21(DE3) derivative, pET-9a
Protocol: (§1) Compounds were prepared in DMSO at a final concentration of 50 mM prior to dilution in the assay buffer. The reaction rate was measured as the variation of absorbance observed upon substrate hydrolysis in a UV-Vis spectrophotometer or microplate reader at a wavelength of 300 nm (imipenem, meropenem), 260 nm (cefotaxime), or 482 nm (nitrocefin) and in the presence of a purified MBL enzyme (such as VIM-1, VIM-2, VIM-4, NDM-1, and IMP-1, at a final concentration ranging from 1 to 70 nM).
(§2) These enzymes were overproduced in derivatives of E. coli BL21(DE3) carrying a pET-9 a (IMP-1, VIM-1, VIM-2, and VIM-4) or pET-15 b (NDM-1) vector into which the metallo-β-lactamase-encoding open reading frame was cloned. Bacterial strains were grown in the auto-inducing medium, ZYP-5052, supplemented with 50 μg/mL kanamycin for 24 h at 37 °C [38]. IMP-1, VIM-1, VIM-2, and VIM-4 were purified by ion-exchange and gel filtration chromatography using an AKTA Purifier platform (GE Healthcare, Uppsala, Sweden) as previously described. NDM-1 (residues 37-270) was produced as an amino-terminal 6 xHis-tag fusion protein and was purified using affinity chromatography. After growth for 26 h at 25 °C, bacterial cells were harvested by centrifugation (10,000× g, 30 min, 4 °C), resuspended in 10 mM HEPES buffer (pH 7.5) containing 0.15 M NaCl (buffer A) in one-fifth of the original culture volume, and lysed by sonication. Cellular debris was removed by centrifugation (12,000× g, 40 min, 4 °C). The clarified sample was loaded on a HisTrap HP column (bed volume, 5 mL; GE Healthcare), followed by a wash step (25 mL) with buffer A containing 20 mM imidazole. Proteins were eluted using buffer A containing 350 mM imidazole. The resulting protein sample was desalted (HiPrep 26/10 Desalting column, GE Healthcare) using 20 mM triethanolamine (pH 7.2) supplemented with 50 μM ZnSO4 and concentrated using an Amicon Ultra-15 (MW cut-off, 10 kDa; Millipore, Burlington, MA, USA). The concentrated sample was loaded on a Superdex 75 prep grade column (XK16/100 column; bed volume, 140 mL; GE Healthcare) and the proteins eluted with buffer A containing 50 μM ZnSO4. The active fractions were pooled and stored at −20 °C. The purity of the protein preparations was estimated >95% by SDS-PAGE analysis. The authenticity of the enzyme preparations was confirmed by electron spray ionization mass spectrometry, as previously described.
(§3) The inhibition constants (Ki) were determined on the basis of a model of competitive inhibition by analyzing the dependence of the ratio v0/vi (v0, hydrolysis velocity in the absence of inhibitor; vi, hydrolysis velocity in the presence of inhibitor) as a function of [I] as already described. The slope of the plot of v0/vi vs. [I], which corresponds to Km^S/(Km^S + [S])Ki (where Km^S is the Km value of the reporter substrate and [S] its concentration in the reaction mixture) and allowed the calculation of the Ki value. Alternatively, a Dixon plot analysis was carried out by measuring the initial hydrolysis rates in the presence of variable concentrations of inhibitor and substrate. This allowed Ki values to be determined and supported the hypothesis that the various compounds behaved as competitive inhibitors of the various tested enzymes. The assays were performed in triplicate.

VIM-4 = biological target: T2, VIM-4 (Pseudomonas aeruginosa, UniProt A0A0F7KYQ8, S205R); experiment: MBL inhibition, reporter substrate method, VIM-4; assay type: biochemical; conditions: read-out: Inhibition of VIM-4 (dash)
T2 construct: made in house; host or cells: E. coli BL21(DE3) derivative, pET-9a
Protocol: as §1, §2, §3

VIM-2 = biological target: T3, VIM-2 (Escherichia coli, UniProt Q5U7L7); experiment: Isothermal titration calorimetry of binding to VIM-2
T3 construct: made in house; host or cells: E. coli BL21(DE3) derivative, pET-9a
Protocol: ITC titrations were performed on a MicroCal ITC200 (GE-Malvern) equipped with a 200 µL Hastelloy sample cell and an automated 40 µL glass syringe rotating at 1000 rpm. VIM-2 in 10 mM Hepes-NaOH, 0.15 M NaCl, 50 µM ZnSO4, pH 7.5 was diluted to the desired concentration with the same buffer and was brought to a DMSO concentration identical to that of the injected compound. The tested compound was solubilized in DMSO at 20 mM concentration and was diluted to 200 µM with the enzyme buffer, resulting in a final DMSO concentration of 1%.
In a standard experiment, VIM-2 (19 µM) was titrated by one initiating injection (0.5 µL) followed by 19 injections (2 µL) of compound (200 µM) at an interval of 150 s. Dilution heat of compound injections into buffer, at the corresponding DMSO concentration, were subtracted from raw data. The data so obtained were fitted via nonlinear least squares minimization method to determine binding stoichiometry (n), association constant (Ka), and change in enthalpy of binding (∆H°b) using ORIGIN 7 software v.7 (OriginLab, Northampton, MA, USA). In the fitting procedure, the compound concentration was lowered in order to provide n around 1 and to take compound solubility into account under ITC conditions. The Gibbs free energy of binding, ∆G°b, was calculated from Ka (∆G°b = −RT ln Ka) and the entropic term, T∆S°b, was derived from the Gibbs–Helmholtz equation using the experimental ∆H°b value (∆G°b = ∆H°b − T∆S°b).

T1 sequence (P52699 19-246 limits assumed): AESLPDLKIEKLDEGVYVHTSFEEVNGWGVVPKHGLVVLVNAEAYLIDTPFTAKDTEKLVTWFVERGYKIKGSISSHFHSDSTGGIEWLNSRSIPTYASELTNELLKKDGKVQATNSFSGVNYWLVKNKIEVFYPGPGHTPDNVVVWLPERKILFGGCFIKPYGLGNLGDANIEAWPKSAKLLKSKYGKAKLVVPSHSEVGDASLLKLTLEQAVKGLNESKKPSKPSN

## O=C(O)c1ccccc1CNn1c(-c2ccccc2)n[nH]c1=S [Compound 1]
IMP-1
  inhibition at 100 µM: < 40%
VIM-4
  inhibition at 100 µM: < 30%
VIM-2
  Kd: 358 nM
VIM-2; 25 °C
  Ka: 2.8 ± 0.4 µM⁻¹
  n, stoichiometry of binding: 1.01 ± 0.01
  ∆H°b: -6.3 ± 0.1 kcal/mol
VIM-2; 25 °C, calculated from Ka
  ∆G°b: -8.8 kcal/mol
VIM-2; 25 °C, from Gibbs–Helmholtz equation
  T∆S°b: 2.5 kcal/mol
